# pIC50: −log10 of the molar value.
# Biological target: T1, Human cRaf1 (Homo sapiens, UniProt P04049)
# T1 construct: poly-histidine (C); made in house
# Assay: Raf kinase assay (cRaf1 assay / Raf/MEK cascade assay)
# Assay type: biochemical
# Conditions: Table 3; read-out: Raf Kinase activity
# Method: The potency of cRaf1 dependent kinase activity was measured using one of two assay formats. The first measured cRaf1 catalyzed phosphorylation of MEK1, the natural substrate for cRaf1. This assay is referred to as the cRaf1 assay. The second measured the ability of cRaf1 to phosphorylate and activate MEK1. This assay is referred to as the Raf/MEK cascade assay.
# Human cRaf1 tagged with poly histidine at the carboxyterminus was expressed in a baculovirus expression system and purfied by Ni chelate affinity chromatography. Human MEK1 was expressed in E. coli as a fusion protein with Glutathione-S-transferase, and purified by glutathione sepharose affinity chromatography. […] Reactions contained cRaf1 (20 nM), MEK1 (100-500 nM), [γ-^32 P]ATP ([…]), Mg^2+ (10 mM), MOPS (50 mM, pH 7.5). Reactions were incubated at room temperature for periods of time ranging from 20-120 minutes. Inhibitors were diluted in 100% DMSO prior to addition to the assay. Reactions were terminated with an equal volume of 0.5% phosphoric acid. MEK1 phosphorylation was detected by scintillation counting following collection of protein onto phosphocellulose filters.
# Human cRaf1 and MEK1 were purified as described above. A peptide substrate phosphorylated by MEK1 was used as the final phosphoryl group acceptor. […] Assay conditions were the same as those described above except for the following modifications. Reactions contained cRaf1 (1-5 nM), MEK1 (60 nM), and peptide ([…]).
# T1 sequence (P04049 whole entry): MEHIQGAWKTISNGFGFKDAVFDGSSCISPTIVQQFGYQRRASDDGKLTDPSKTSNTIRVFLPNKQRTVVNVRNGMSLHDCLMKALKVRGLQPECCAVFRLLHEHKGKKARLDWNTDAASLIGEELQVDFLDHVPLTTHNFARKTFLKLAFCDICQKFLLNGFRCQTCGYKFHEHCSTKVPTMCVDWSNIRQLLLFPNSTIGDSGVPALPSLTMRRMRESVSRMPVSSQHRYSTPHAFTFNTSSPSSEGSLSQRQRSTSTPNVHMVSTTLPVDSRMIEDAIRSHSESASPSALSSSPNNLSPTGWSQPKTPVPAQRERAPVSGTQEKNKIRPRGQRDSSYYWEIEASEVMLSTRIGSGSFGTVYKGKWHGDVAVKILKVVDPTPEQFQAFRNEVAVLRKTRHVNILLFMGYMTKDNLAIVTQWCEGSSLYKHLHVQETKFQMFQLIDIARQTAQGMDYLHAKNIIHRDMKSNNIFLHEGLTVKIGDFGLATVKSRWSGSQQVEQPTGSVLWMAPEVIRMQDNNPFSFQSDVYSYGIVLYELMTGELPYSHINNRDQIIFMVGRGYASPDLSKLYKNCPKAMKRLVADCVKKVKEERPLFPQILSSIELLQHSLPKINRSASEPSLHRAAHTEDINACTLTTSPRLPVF
row,Structure (SMILES),pIC50
1,"CC(=O)c1ccc2c(c1)C(=Cc1cc(Br)c(O)c(Br)c1)C(=O)N2 [Example 89, 5-Acetyl-3-(3,5-dibromo-4-hydroxy-benzylidene)-1,3-dihydro-indol-2-one]",> 6.00
2,"CC(=O)c1ccc2c(c1)C(=Cc1cc(Cl)c(O)c(Cl)c1)C(=O)N2 [Example 90, 5-Acetyl-3-(3,5-dichloro-4-hydroxy-benzylidene)-1,3-dihydro-indol-2-one]",> 6.00
3,"O=C1Nc2ccc(-c3ccccc3)cc2C1=Cc1cc(Br)c(O)c(Br)c1 [Example 92, 3-(3,5-Dibromo-4-hydroxy-benzylidene)-5-phenyl-1,3-dihydro-indol-2-one]",> 6.00
4,"O=C1Nc2ccc(C(=O)c3ccc([N+](=O)[O-])cc3)cc2C1=Cc1cc(Br)c(O)c(Br)c1 [Example 95, 3-(3,5-Dibromo-4-hydroxy-benzylidene)-5-(4-nitro-benzoyl)-1,3-dihydro-indol-2-one]",> 6.00
5,"O=C1Nc2ccc(C(=O)c3cccc([N+](=O)[O-])c3)cc2C1=Cc1cc(Br)c(O)c(Br)c1 [Example 96, 3-(3,5-Dibromo-4-hydroxy-benzylidene)-5-(3-nitro-benzoyl)-1,3-dihydro-indol-2-one]",> 6.00
6,"O=C1Nc2ccc(C(=NO)c3ccccc3)cc2C1=Cc1cc(Br)c(O)c(Br)c1 [Example 97, 3-(3,5-Dibromo-4-hydroxy-benzylidene)-5-((hydroxyimino)-phenyl-methyl)-1,3-dihydro-indol-2-one]",> 6.00
7,"NS(=O)(=O)c1ccc2c(c1)C(=Cc1cc(Cl)c(O)c(Cl)c1)C(=O)N2 [Example 99, 3-(3,5-Dichloro-4-hydroxy-benzylidene)-2-oxo-2,3-dihydro-1H-indole-5-sulfonic acid amide]",> 6.00
8,"O=C1Nc2ccc(S(=O)(=O)N3CCCC3)cc2C1=Cc1cc(Cl)c(O)c(Cl)c1 [Example 100, 3-(3,5-Dichloro-4-hydroxy-benzylidene)-5-(pyrrolidine-1-sulfonyl)-1,3-dihydro-indol-2-one]",> 6.00
9,"COc1cc(C=C2C(=O)Nc3ccccc32)cc(I)c1O [Example 102, 3-(4-Hydroxy-3-iodo-5-methoxy-benzylidene)-1,3-dihydro-indol-2-one]",5.00 to 6.00
10,"COc1cc(C=C2C(=O)Nc3ccc(I)cc32)cc([N+](=O)[O-])c1O [Example 104, 3-(4-Hydroxy-3-methoxy-5-nitro-benzylidene)-5-iodo-1,3-dihydro-indol-2-one]",> 6.00
11,"CC(C)N(C(=O)Oc1c(Br)cc(C=C2C(=O)Nc3ccc(Cl)cc32)cc1Br)C(C)C [Example 106, 2,6-Dibromo-4-[(5-chloro-2-oxo-1,2-dihydro-3H-indol-3-ylidene)methyl]phenyl N,N-diisopropylcarbamate]",4.00 to 5.00
12,"CN(C)CC(=O)c1ccc2c(c1)C(=Cc1cc(Br)c(O)c(Br)c1)C(=O)N2 [Example 107, 3-(3,5-Dibromo-4-hydroxy-benzylidene)-5-(2-dimethylamino-acetyl)-1,3-dihydro-indol-2-one]",> 6.00
13,"CCN(CCO)CC(=O)c1ccc2c(c1)C(=Cc1cc(Br)c(O)c(Br)c1)C(=O)N2 [Example 108, 3-(3,5-Dibromo-4-hydroxy-benzylidene)-5-{2-[N-ethyl-N-(2-hydroxy-ethyl)-amino]-acetyl}-1,3-dihydro-indol-2-one]",> 6.00
14,"O=C1Nc2ccc(C(=O)CCl)cc2C1=Cc1cc(I)c(O)c(I)c1 [Example 114, 5-(2-Chloro-acetyl)-3-(3,5-diiodo-4-hydroxy-benzylidene)-1,3-dihydro-indol-2-one]",> 6.00
15,"CCN(CC)S(=O)(=O)c1ccc2c(c1)C(=Cc1cc(Cl)c(O)c(Cl)c1)C(=O)N2 [Example 115, 3-(3,5-Dichloro-4-hydroxy-benzylidene)-2-oxo-2,3-dihydro-1H-indol-5-sulfonic acid diethylamide]",> 6.00
16,"O=C1Nc2ccc(S(=O)(=O)N3CCOCC3)cc2C1=Cc1cc(Cl)c(O)c(Cl)c1 [Example 116, 3-(3,5-Dichloro-4-hydroxy-benzylidene)-5-(morpholine-4-sulfonyl)-1,3-dihydro-indol-2-one]",> 6.00
17,"CCc1ccc2c(c1)C(=Cc1cc(Br)c(O)c(Br)c1)C(=O)N2 [Example 120, 3-(3,5-Dibromo-4-hydroxy-benzylidine)-5-ethyl-1,3-dihydro-indol-2-one]",> 6.00
18,"O=C1Nc2cc(Br)ccc2C1=Cc1cc(Br)c(O)c(Br)c1 [Example 123, 6-Bromo-3-(3,5-dibromo-4-hydroxy-benzylidene)-1,3-dihydro-indol-2-one]",> 6.00
19,"O=C1Nc2ccc(-c3csc(-c4ccccc4)n3)cc2C1=Cc1cc(Cl)c(O)c(Cl)c1 [Example 124, 3-(3,5-Dichloro-4-hydroxy-benzylidene)-5-(2-phenyl-thiazol-4-yl)-1,3-dihydro-indol-2-one]",> 6.00
20,"O=C1Nc2ccc(-c3csc(Nc4ccccc4)n3)cc2C1=Cc1cc(Br)c(O)c(Br)c1 [Example 126, 3-(3,5-Dibromo-4-hydroxy-benzylidene)-5-(2-phenylamino-thiazol-4-yl)-1,3-dihydro-indol-2-one]",> 6.00
21,"O=C1Nc2ccc(-c3csc(Nc4ccccc4)n3)cc2C1=Cc1cc(Cl)c(O)c(Cl)c1 [Example 127, 3-(3,5-Dichloro-4-hydroxy-benzylidene)-5-(2-phenylamino-thiazol-4-yl)-1,3-dihydro-indol-2-one]",> 6.00
22,"O=C1Nc2ccc(C3=NNC(=S)NC3)cc2C1=Cc1cc(Cl)c(O)c(Cl)c1 [Example 128, 3-(3,5-Dichloro-4-hydroxy-benzylidene)-5-(3-thioxo-2,3,4,5-tetrahydro-[1,2,4]-triazine-6-yl)-1,3-dihydro-indol-2-one]",> 6.00

# Continued, values first:
row,pIC50,Structure (SMILES)
1,> 6.00,"COc1cccc(C(=O)c2ccc3c(c2)C(=Cc2cc(Br)c(O)c(Br)c2)C(=O)N3)c1 [Example 91, 3-(3,5-Dibromo-4-hydroxy-benzylidene)-5-(3-methoxy-benzoyl)-1,3-dihydro-indol-2-one]"
2,> 6.00,"O=C1Nc2ccc(-c3ccccc3)cc2C1=Cc1cc(Cl)c(O)c(Cl)c1 [Example 93, 3-(3,5-Dichloro-4-hydroxy-benzylidene)-5-phenyl-1,3-dihydro-indol-2-one]"
3,> 6.00,"CCNc1nc(-c2ccc3c(c2)C(=Cc2cc(Br)c(O)c(Br)c2)C(=O)N3)cs1 [Example 94, 3-(3,5-Dibromo-4-hydroxy-benzylidene)-5-(2-(ethylamino)-4H-thiazol-4-yl)-1,3-dihydro-indol-2-one]"
4,> 6.00,"CCC(=O)c1ccc2c(c1)C(=Cc1cc(Cl)c(O)c(Cl)c1)C(=O)N2 [Example 98, 3-(3,5-Dichloro-4-hydroxy-benzylidene)-5-propionyl-1,3-dihydro-indol-2-one]"
5,5.00 to 6.00,"COc1cc(C=C2C(=O)Nc3ccccc32)cc([N+](=O)[O-])c1O [Example 101, 3-(4-Hydroxy-3-methoxy-5-nitro-benzylidene)-1,3-dihydro-indol-2-one]"
6,4.00 to 5.00,"CC(=O)Oc1c(Br)cc(C=C2C(=O)Nc3ccc(Cl)cc32)cc1Br [Example 103, 2,6-Dibromo-4-[(5-chloro-2-oxo-1,2-dihydro-3H-indol-3-ylidene)methyl]phenyl acetate]"
7,> 6.00,"O=C1Nc2ccc([N+](=O)[O-])cc2C1=Cc1cc(O)c(O)c(Cl)c1 [Example 105, 3-(3-Chloro-4,5-dihydroxy-benzylidene)-5-nitro-1,3-dihydro-indol-2-one]"
8,> 6.00,"O=C1Nc2c(F)cccc2C1=Cc1cc(Br)c(O)c(Br)c1 [Example 109, 3-(3,5-Dibromo-4-hydroxy-benzylidene)-7-fluoro-1,3-dihydro-indol-2-one]"
9,> 6.00,"CN1CCN(CC(=O)c2ccc3c(c2)C(=Cc2cc(Br)c(O)c(Br)c2)C(=O)N3)CC1 [Example 110, 3-(3,5-Dibromo-4-hydroxy-benzylidene)-5-[2-(4-methyl-piperazin-1-yl)-acetyl]-1,3-dihydro-indol-2-one]"
10,5.00 to 6.00,"O=C1Nc2cc(-c3ccccc3)ccc2C1=Cc1cc(Br)c(O)c(Br)c1 [Example 112, 3-(3,5-Dibromo-4-hydroxy-benzylidene)-6-phenyl-1,3-dihydro-indol-2-one]"
11,5.00 to 6.00,"CC(C)Oc1ccc2c(c1)NC(=O)C2=Cc1cc(Br)c(O)c(Br)c1 [Example 113, 3-(3,5-Dibromo-4-hydroxy-benzylidene)-6-isopropoxy-1,3-dihydro-indol-2-one]"
12,> 6.00,"CC(=O)N1CCc2cc3c(cc21)C(=Cc1cc(Br)c(O)c(Br)c1)C(=O)N3 [Example 118, 5-Acetyl-3-(3,5-dibromo-4-hydroxy-benzylidene)-3,5,6,7-tetrahydro-1H-pyrrolo[2,3-f]indol-2-one]"
13,> 6.00,"O=C1Nc2ccc(-c3csc(-c4ccccc4)n3)cc2C1=Cc1cc(Br)c(O)c(Br)c1 [Example 125, 3-(3,5-Dibromo-4-hydroxy-benzylidene)-5-(2-phenyl-thiazol-4-yl)-1,3-dihydro-indol-2-one]"
14,> 6.00,"O=C1Nc2ccc(C3=NNC(=S)NC3)cc2C1=Cc1cc(Br)c(O)c(Br)c1 [Example 129, 3-(3,5-Dibromo-4-hydroxy-benzylidene)-5-(3-thioxo-2,3,4,5-tetrahydro-[1,2,4]-triazine-6-yl)-1,3-dihydro-indol-2-one]"
